Test results published in publication PMC12025037, “Molecular Basis of Dipeptide Recognition in Drosophila melanogaster Angiotensin I-Converting Enzyme Homologue, AnCE” (Biomolecules, 2025).
Residues, ends and D or L forms follow the SMILES beside them.

What was measured:
AnCE = target: T1, AnCE (Drosophila melanogaster, UniProt Q10714); assay: Inhibition of AnCE activity, fluorogenic Abz-FRK(Dnp)-P substrate assay; format: biochemical; settings: for IC50: AnCE 25 ng, substrate Abz-FRK(Dnp)-P, pH 7.5, 20 °C, 10 min pre-incubation with inhibitor; for Ki: AnCE
T1 construct: made in house; host or cells: Pichia pastoris GS115 (vector pPiC9), purified from the culture supernatant
T1 sequence (Q10714 18-615): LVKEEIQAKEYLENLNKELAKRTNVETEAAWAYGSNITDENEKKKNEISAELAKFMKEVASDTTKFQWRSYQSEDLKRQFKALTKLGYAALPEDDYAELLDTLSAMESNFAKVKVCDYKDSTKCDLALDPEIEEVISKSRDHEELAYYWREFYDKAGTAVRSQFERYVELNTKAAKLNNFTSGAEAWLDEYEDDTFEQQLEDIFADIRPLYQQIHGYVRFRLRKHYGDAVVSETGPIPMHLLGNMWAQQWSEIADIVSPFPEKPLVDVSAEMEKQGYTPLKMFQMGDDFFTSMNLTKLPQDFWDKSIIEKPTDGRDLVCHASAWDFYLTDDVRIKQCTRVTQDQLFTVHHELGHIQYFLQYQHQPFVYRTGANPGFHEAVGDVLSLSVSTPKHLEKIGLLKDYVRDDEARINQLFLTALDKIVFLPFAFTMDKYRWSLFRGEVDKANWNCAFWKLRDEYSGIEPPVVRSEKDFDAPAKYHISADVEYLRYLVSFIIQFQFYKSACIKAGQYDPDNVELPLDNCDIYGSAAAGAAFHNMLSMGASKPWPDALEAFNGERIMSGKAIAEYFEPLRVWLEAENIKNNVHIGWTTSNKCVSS
Description: Enzyme assays were performed using the internally quenched fluorogenic peptide Abz-FRK(Dnp)-P (Enzo Life Sciences Ltd., Exeter, UK) as a substrate for 25 ng of AnCE in 200 µL of 100 mM HEPES buffer pH 7.5 with 50 mM NaCl and 10 µM ZnCl2. The reaction was started by adding 2 µL of 5 mM Abz-FRK(Dnp)-P in dimethyl sulfoxide to the buffer in wells of a 96-well black plastic plate (Corning Life Sciences, High Wycombe, UK), and the release of fluorescence on hydrolysis of the substrate was monitored continuously at 20 °C using a FLUOstar Omega (BMG Labtech GmbH, Offenburg, Germany) with λex at 340 nm and λem set at 430 nm. For studying the effect of dipeptide inhibitors, the enzyme in the assay buffer was pre-incubated with inhibitor for 10 min prior to the addition of the substrate. IC50 values were determined using the non-linear regression curve-fitting software [log(inhibitor) vs. response] of GraphPad Prism 7.01 (GraphPad Software, San Diego, CA, USA). The coefficient of determination (R^2) values for the regression model ranged from 0.9852 to 0.9629. Ki values were obtained using the Cheng–Prusoff equation and a substrate Km of 14.24 µM, obtained using non-linear regression curve-fitting software (Michaelis–Menten) of GraphPad Prism 7.01. The R^2 for the Km determination was 0.9787 [31].

ACE = test system: ACE; design: method as in doi:10.1007/s00217-013-2014-x; settings: inhibition of ACE activity; cited from earlier work
cACE = target: cACE; design: method as in PMID 25053098; settings: cited from earlier work
nACE = target: nACE; design: method as in PMID 25053098; settings: cited from earlier work
[1] = from IC50 by Cheng–Prusoff equation, substrate Km 14.24 µM

Row | IC50 (AnCE) [µM] | Ki (AnCE; [1]) [µM] | Ki (AnCE; values restated in µM in the text) [µM] | SMILES | IC50 (ACE) [µM] | Ki (cACE) [µM] | Ki (nACE) [µM] | inhibition of cACE (in words) (cACE)
1 | 880 |  | 200 | NC(N)=NCCC[C@H](N)C(=O)N[C@@H](Cc1c[nH]c2ccccc12)C(=O)O [RW] (H-Arg-Trp-OH) |  |  |  | 
2 | 3780 | 840 |  | N=C(N)NCCC[C@H](NC(=O)[C@@H](N)Cc1c[nH]c2ccccc12)C(=O)O [WR] (H-Trp-Arg-OH) |  |  |  | poor inhibitors
3 | 3400 | 750 |  | N[C@@H](Cc1ccc(O)cc1)C(=O)N[C@@H](Cc1c[nH]c2ccccc12)C(=O)O [YW] (H-Tyr-Trp-OH) |  |  |  | poor inhibitors

More lines, now with the values behind:

Row | SMILES | IC50 (AnCE) [µM] | Ki (AnCE; [1]) [µM] | Ki (AnCE; values restated in µM in the text) [µM] | IC50 (ACE) [µM] | Ki (cACE) [µM] | Ki (nACE) [µM] | inhibition of cACE (in words) (cACE)
4 | CC[C@H](C)[C@H](N)C(=O)N[C@@H](Cc1c[nH]c2ccccc12)C(=O)O [IW] | 340 | 80 |  | 0.7 | 1.6 | 59.6 | 
5 | CC(C)[C@H](N)C(=O)N[C@@H](Cc1c[nH]c2ccccc12)C(=O)O [VW] (H-Val-Trp-OH) | 780 | 170 |  |  | 2.1 | 152 | 
